Measurements published in patent publication US20130023589A1, “MEDICATION FOR THERAPY OR PROPHYLAXIS OF ASTHMA” (priority 2011, published 2013).

How the values were obtained:
[1] = test system: primary human bronchial smooth cells (BSMC); experiment: QCM Chemotaxis cell migration assay of BSMCs cocultured with DBP-treated BEAS-2B cells; format: cell-based; settings: 5 μM ginger compound, then coculture with DBP-BEAS for 24 hours; groups A1-7 to A1-10, FIG. 6
Description: (§1) With reference to FIG. 5, the plasticizers-treated bronchial smooth muscle cells are prepared by processing two steps. In the first step, a plasticizer-treated bronchial epithelial cell line is obtained by harvesting a human bronchial epithelial cell line in a chemical plasticizer at 37±1° C. for 6 hours, with each 100 mm incubating plate receiving 2×10^6 cells and with the treatment of the chemical plasticizer to induce the excretion of proinflammatory cytokines in the human bronchial epithelial cell line, such as IL-8 and RANTES, followed by removing the chemical plasticizer from the human bronchial epithelial cell line, reincubating the human bronchial epithelial cell lines in a culturing medium for 24 hours, and finally collecting the supernatants to obtain plasticizers-treated bronchial epithelial cells of the present invention. In specification, the chemical plasticizer of the present invention can be selected from a group of butylbenzyl phthalate (BBP), bis-(2-ethylhexyl) phthalate (BEHP), dibutyl phthalate (DBP) and diethyl phthalate (DEP), and with the concentration of 0.1 to 5.0 μM.
(§2) In the second step, the plasticizer-treated bronchial epithelial cells obtained from the first step are coincubated with a human bronchial smooth muscle cell line to obtain the plasticizer-treated bronchial smooth muscle cells of the present invention. […]
With reference of TABLE 1, the BSMCs are previously seeded into a migration chamber for 24 hours, with the BSMCs placing on the surface of the migration chamber, and randomly assigned into 10 groups including A1-1 to A1-10 to carry out various treatments between 10 groups. […] After the treatments, the BSMCs of the groups A1-1 to A1-10 are analyzed by a QCM Chemotaxis […] cell migration assay system (Chemicon, Temecula, Calif.; Millipore Corp, Bedford, Mass.), with the BSMCs in each group being stained, lysed and finally quantified on a microplate at 560 nm. […]

[2] = test system: primary human bronchial smooth cells (BSMC); experiment: WST-1 cell proliferation assay of BSMCs cocultured with DBP-treated BEAS-2B cells; format: cell-based; settings: 5 μM ginger compound for 1 hour, then coculture with DBP-BEAS for 72 hours; groups A2-7 to A2-10, FIG. 7
Description: as §1, §2
Additionally, with reference to TABLE 2, the BSMCs are placed and preincubated in 96-well culture plates for 24 hours, followed by randomly assigning into 10 groups including A2-1 to A2-10 to carry out various treatments between 10 groups. […] After the various treatments of each group, the proliferation degrees of BSMCs in each group are determined by Premixed WST-1 Cell Proliferation Reagent (Clontech Laboratories Inc., Mountain View, Calif.).

Structure (SMILES) | plasticizer-induced airway remodeling: migration of BSMCs [1] | plasticizer-induced airway remodeling: proliferation of BSMCs [2]
CCCCC[C@H](O)CC(=O)CCc1ccc(O)c(OC)c1 [[6]-gingerol] | sufficient in suppressing | sufficient in suppressing
CCCCC/C=C/C(=O)CCc1ccc(O)c(OC)c1 [[6]-shogaol] | sufficient in suppressing | sufficient in suppressing
CCCCCCCCC[C@H](O)CC(=O)CCc1ccc(O)c(OC)c1 [[10]-gingerol] | sufficient in suppressing | sufficient in suppressing
